Holding throughout (assay type): cell-based
In data set [1] the test system is human dermal fibroblasts (HDF). Description: LDH activity in cell culture solution of human fibroblasts. The following applies: young and replicative senescent fibroblasts; 4 days. How it is done: (§1) Cytotoxicity against young and senescent cells was investigated with a lactate dehydrogenase (LDH) activity kit (Dojindo Molecular Technologies Inc.).
(§2) Young cells (1×10^3 cells/100 μl/well) or senescent cells (2×10^3 cells/100 μl/well) were dispensed into a 96-well plate, and then cultured overnight in a 37° C., 5% CO2 incubator. Zotarolimus and ABT263 were treated at each concentration, and then incubated for 4 days in a 37° C., 5% CO2 incubator.
(§3) After transferring the cell culture solution to a 1.5 ml tube, it was centrifuged at 4° C. and 12,000 rpm. 100 μl of the supernatant was dispensed into a 96-well plate, and 100 μl of the LDH measurement solution was added to each well, followed by reaction in a CO2 incubator for 30 minutes.
(§4) 50 μl of the LDH reaction stop solution was added, and absorbance was measured at 490 nm using a microplate reader. The level of LDH activity was expressed as a relative value based on the absorbance of the control group treated with only DMSO.
From the above results, in order to confirm whether the decrease in cell growth caused by zotarolimus was due to cell death or simply because the growth stopped, LDH activity was investigated in the cell culture solution.

Data set [2] has as its system human umbilical vascular endothelial cells (HUVEC). Description: LDH activity in cell culture solution of vascular endothelial cells. The following applies: young and replicative senescent HUVEC; 4 days. How it is done: as §1, §2, §3, §4
In order to confirm whether the decrease in cell growth caused by zotarolimus as described above was due to cell death, LDH activity was investigated in the cell culture solution.

Data set [3] relates to human retinal pigmented epithelial cells (ARPE-19). Description: SAβG activity staining in senescent retinal pigmented epithelial cells. The following applies: premature senescent retinal pigmented epithelial cells by doxorubicin; 100 nM, 4 days; vs DMSO-treated group; p<0.01. How it is done: (§5) Each cell was treated in a serum-free culture solution containing 0.5 μM doxorubicin for 4 hours. After washing the cells with a serum-free culture solution, the cells were cultured for 4 days in a culture solution containing 10% FBS, and then cellular aging was confirmed by staining with senescence-associated beta galactosidase (SAβG). After each sample was dissolved in DMSO, young cells, replicative senescent cells, and premature senescent cells treated with doxorubicin were treated with 100 nM zotarolimus, 100 nM rapamycin, 100 nM ABT263, respectively. After incubation for 4 days in a 37° C., 5% CO2 incubator, the degree of cell growth was confirmed by CCK-8 analysis, the degree of cellular aging was confirmed by senescence-related beta-galactosidase (SAβG) staining, The cells were washed with 1× phosphate buffer solution, and fixed with a phosphate buffer solution containing 3.7% (v/v) paraformaldehyde. After adding 1 mg/ml 5-bromo-4-chloro-3-indolyl-6-D-galactoside, 40 mM citric acid-sodium phosphate (pH 6.0), 5 mM potassium ferricyanide, 5 mM potassium ferrocyanide, 150 mM NaCl, and 2 mM MgCl2 solution, it was reacted at 37° C. for 18 hours. It was stained with eosin as a control stain. Cells stained blue in the cytoplasm were identified using an optical microscope. […]

For data set [4], the system named is human tubular epithelial cell (HK2). Briefly: CCK-8 cell growth analysis in premature senescent HK2 cells. The following applies: premature senescent HK2 cells by doxorubicin; 100 nM, 4 days; vs DMSO-treated group. The procedure: Each cell was treated in a serum-free culture solution containing 0.5 μM doxorubicin for 4 hours. After washing the cells with a serum-free culture solution, the cells were cultured for 4 days in a culture solution containing 10% FBS, and then cellular aging was confirmed by staining with senescence-associated beta galactosidase (SAβG). After each sample was dissolved in DMSO, young cells, replicative senescent cells, and premature senescent cells treated with doxorubicin were treated with 100 nM zotarolimus, 100 nM rapamycin, 100 nM ABT263, respectively. After incubation for 4 days in a 37° C., 5% CO2 incubator, the degree of cell growth was confirmed by CCK-8 analysis, the degree of cellular aging was confirmed by senescence-related beta-galactosidase (SAβG) staining, Young cells (1×10^3 cells/well) or senescent cells (2×10^3 cells/well) were dispensed into a 96-well plate, and cultured overnight in a 37° C., 5% CO2 incubator. Zotarolimus, ABT263 and rapamycin were treated at each concentration, and then incubated for 4 days in a 37° C., 5% CO2 incubator. […] Then, the absorbance was measured at 450 nm using a microplate reader. The degree of cell growth was expressed as a relative value for the absorbance of the control group treated with only DMSO as 100%. […]

For data set [5] the test system is unchanged. Briefly: SAβG activity staining in premature senescent HK2 cells. The following applies: premature senescent HK2 cells by doxorubicin; 100 nM, 4 days. How it is done:
as §5

Structures are written as SMILES.

In the case of `CO[C@H]1C[C@@H]2CC[C@@H](C)[C@@](O)(O2)C(=O)C(=O)N2CCCC[C@H]2C(=O)O[C@H]([C@H](C)C[C@@H]2CC[C@H](n3cnnn3)[C@H](OC)C2)CC(=O)[C@H](C)/C=C(\C)[C@@H](O)[C@@H](OC)C(=O)[C@H](C)C[C@H](C)/C=C/C=C/C=C/1C` [zotarolimus], in data set [1], the “LDH activity in the cell culture medium” value was “no difference in LDH activity”. Moreover, the “LDH activity in the cell culture solution” value in data set [2] is on record as “no difference in LDH activity”. In addition, the SAβG activity staining result in data set [3] is on record as “significantly decreased”. Moreover, in data set [4], the “cell growth (CCK-8)” value was “no difference in the growth”. For the same molecule, the SAβG staining entry in data set [5] is given as “decreased”.

Values taken from patent US20220023271A1, “COMPOSITION FOR PREVENTING OR TREATING CELLULAR SENESCENCE-RELATED DISEASES COMPRISING ZOTAROLIMUS AS ACTIVE INGREDIENT” (RESEARCH COOPERATION FOUNDATION OF YEUNGNAM UNIVERSITY, priority 2018, published 2022).
